Values of other authors in patent US20230113836A1, “NEW CONJUGATES OF PEPTIDES AND POLYSACCHARIDE” (ENLITISA (SHANGHAI) PHARMACEUTICAL CO., LTD., priority 2019, published 2023).

Test system: Drosophila model organism
Details: Foureman et al., 1994

C(CCOCC1CO1)COCC1CO1 (stereo not shown) [BDDE, 1,4-butanediol diglycidyl ether]
Mutagenicity: mutagenic
